Converted amounts (≈) assume the structure as drawn. Where two headings read alike, the source gives them in different places.
Columns and labels:
Type in all cases: cell-based
[1] = system: Staphylococcus aureus MSSA ATCC 29213
Experimental: (§1) The antibacterial evaluations were carried out as described in our previous publication. TLC was performed on Kieselgel 60 F254 (Merck) with detection either by immersion in ammonium molybdate–sulfuric acid solution followed by heating or by using Pauly’s reagent for detection. Flash column chromatography was performed using Silica gel 60 (Merck 0.040–0.063 mm).

[2] = system: Enterococcus faecalis ATCC 51299 VanB
Experimental: as §1

[3] = system: Enterococcus faecalis 15376 VanA; settings: Enterococcus faecalis 15376 VanA (vanA gene positive, teicoplanin-resistant)
Experimental: as §1

[4] = system: Staphylococcus epidermidis ATCC 35984 biofilm
Experimental: as §1

[5] = system: Staphylococcus aureus MRSA ATCC 33591
Experimental: as §1

[6] = system: Staphylococcus epidermidis mecA
Experimental: as §1

[7] = system: Bacillus subtilis ATCC 6633
Experimental: as §1

[8] = system: Enterococcus faecalis ATCC 29212
Experimental: as §1

[9] = Enterococcus faecalis ATCC 51299 VanB (vanB gene positive)

Compound | MIC ([1]; ATCC 29213) [µg/mL] | MIC [2, 9] [µg/mL] | MIC [3] [µg/mL] | MIC ([4]; ATCC 35984) [µg/mL] | MIC ([5]; ATCC 33591) [µg/mL] | MIC ([6]; mecA) [µg/mL] | MIC ([7]; ATCC 6633) [µg/mL] | MIC ([8]; ATCC 29212) [µg/mL] | MIC ([2]; ATCC 51299) [µg/mL] | MIC ([1]; Staphylococcus aureus MSSA ATCC 29213 (methicillin-sensitive)) [µg/mL] | MIC ([4]; Staphylococcus epidermidis ATCC 35984 biofilm) [µg/mL] | MIC ([5]; Staphylococcus aureus MRSA ATCC 33591 (methicillin-resistant)) [µg/mL] | MIC ([6]; Staphylococcus epidermidis mecA (mecA gene expression)) [µg/mL] | MIC ([7]; Bacillus subtilis ATCC 6633, minimum inhibitory concentration) [µg/mL] | MIC ([8]; Enterococcus faecalis ATCC 29212) [µg/mL]
CC(=O)N[C@H]1[C@H](O[C@@H]2c3ccc(c(Cl)c3)Oc3cc4cc(c3O)Oc3ccc(cc3Cl)C[C@H]3NC(=O)[C@H](N)c5ccc(O)c(c5)Oc5cc(O)cc(c5)[C@H](NC3=O)C(=O)N[C@H]4C(=O)N[C@H]3C(=O)N[C@@H]2C(=O)N[C@H](C(=O)O)c2cc(O)cc(O[C@H]4O[C@H](CO)[C@@H](O)[C@H](O)[C@@H]4O)c2-c2cc3ccc2O)O[C@H](CO)[C@@H](O)[C@@H]1O [Compound 2] | 4 (≈ 2.56 µM) | 8 (≈ 5.11 µM) | 4 (≈ 2.56 µM) | 2 (≈ 1.28 µM) | 2 (≈ 1.28 µM) | 4 (≈ 2.56 µM) | 2 (≈ 1.28 µM) | 8 (≈ 5.11 µM) | – | – | – | – | – | – | –
CC(=O)N[C@H]1[C@H](O[C@@H]2c3ccc(c(Cl)c3)Oc3cc4cc(c3O)Oc3ccc(cc3Cl)C[C@H]3NC(=O)[C@H](N)c5ccc(O)c(c5)Oc5cc(O)cc(c5)[C@H](NC3=O)C(=O)N[C@H]4C(=O)N[C@H]3C(=O)N[C@@H]2C(=O)N[C@H](C(=O)O)c2cc(O)cc(O)c2-c2cc3ccc2O)O[C@H](CO)[C@@H](O)[C@@H]1O [Compound 3, teicoplanin pseudoaglycone] | 2 (≈ 1.43 µM) | – | 256 (≈ 183 µM) | 2 (≈ 1.43 µM) | 1 (≈ 0.713 µM) | 1 (≈ 0.713 µM) | 2 (≈ 1.43 µM) | 4 (≈ 2.85 µM) | 2 (≈ 1.43 µM) | – | – | – | – | – | –
Teicoplanin [Teico (1)] | – | 4 | 256 | – | – | – | – | – | – | 0.5 | 2 | 0.5 | 16 | 0.5 | 2
